Literature values, collected in patent US8552052B2, “Use of diindolylmethane-related indoles for the treatment and prevention of respiratory syncytial virus associated conditions” (BioResponse, L.L.C., priority 2004, dated 2013).

System: RSV
Details: monthly intramuscular injections; cited from earlier work

In the case of “Palivizumab: IgG1 monoclonal antibody that selectively binds to the RSV surface glycoprotein F”, the “reduction of the rate of hospitalization of at-risk infants” value is listed as “about 55%”.
